Legend:
A549 cells [1] = experiment: Annexin V/PI staining, FACS; format: cell-based, human; conditions: A549, 10 μM and 20 μM, 24 hours
Procedure: (§1) Cancer cells were cultured in a 6-well plate for 24 hours along with 20 μM of ciclesonide for the case of breast cancer and 10 μM or 20 μM of ciclesonide or DMSO for the case of lung cancer. In accordance with the manufacturer's protocol, apoptotic cells were double-stained with PI and FITC-Annexin V. The sample was analyzed by flow cytometry (Accuri C6, BD, San Diego, Calif., USA).

MDA-MB-231 cells [2] = experiment: Annexin V/PI staining, FACS; format: cell-based, human; conditions: MDA-MB-231, 20 μM, 24 hours
Procedure: as §1

mammospheres = experiment: Mammosphere proliferation (cell counting); format: cell-based, human; conditions: mammospheres treated 2 days, single cells replated and counted
Procedure: FIG. 6B illustrates the effect of ciclesonide on mammosphere growth wherein ciclesonide inhibits the growth of mammospheres, mammospheres having been treated with ciclesonide or DMSO for 2 days were separated into single cells and plated in 6 cm dishes at the same density. 24 hours after plating, the cells were counted, on days 2 and 3, the cells were counted three times, and plotted as mean values, and the data was expressed as the mean±SD for the three independent experimental results. *p<0.05 vs. DMSO-treated control.

[3] = system: A549 cell xenograft tumor; experiment: Lung cancer xenograft model in NOD-SCID male nude mice; format: in vivo; conditions: 10 mg/kg
Procedure: A total of 12 NOD-SCID (BALB/cSIc (nu/nu)) male nude mice producing lung cancer cells were divided into two groups. […] The volume of tumors of each control mouse was measured every three days and calculated by the following equation: (width×length^2)/2. The other six nude mice received neoadjuvant chemotherapy using a test drug by infusion at an optimum dose of 10 mg/kg/day.

A549 cells [4] = experiment: Apoptosis analysis by fluorescence staining (Hoechst 33258); format: cell-based, human; conditions: A549, 30 μM, 24 hours
Procedure: (§2) MDA-MB-231 cells were treated with 20 μM ciclesonide or A549 cells were treated with 30 μM ciclesonide, for 24 hours and the cells were incubated in 10 mg/ml of a Hoechst 33258 solution at 37° C. for 30 minutes. Subsequently, the cells were observed using a fluorescence microscope.

MDA-MB-231 cells [5] = experiment: as above; format: cell-based, human; conditions: MDA-MB-231, 20 μM, 24 hours
Procedure: as §2

A549 cells [6] = experiment: ALDEFLUOR analysis, lung cancer cells; format: cell-based, human; conditions: 24 hours
Procedure: An ALDEFLUOR analysis system provides a novel approach to the identification, evaluation, and isolation of CSCs based on the activity of aldehyde dehydrogenase (ALDH). BODIPY-aminoacetaldehyde as an active reagent was added to breast cancer cells or lung cancer cells, and converted into fluorescent BODIPY-aminoacetate by ALDH. Diethylaminobenzaldehyde (DEAB), which is an ALDH inhibitor, was used as a negative control. MCF-7 cells or A549 cells were treated with 10 μM or 20 μM ciclesonide for 24 hours, and the proportion of ALDH-positive cells was analyzed by ALDEFLUOR assay. ALDH-positive and negative cells were sorted by C6 Accuri flow cytometry (BD Bioscience).

[7] = system: MCF-7 cell-derived mammospheres; experiment: Mammosphere formation; format: cell-based, human
Procedure: (§3) Human breast cancer cells, MCF-7, were obtained from American Type Culture Collection (ATCC; Manassas, Va., USA). MCF-7 cells and MDA-MB-231 cells were cultured in Dulbecco's Modified Essential Medium (DMEM; Hyclone, Logan, Utah, USA) containing 10% fetal bovine serum (FBS; Hyclone), 100 U/ml of penicillin, and 100 μg/ml of streptomycin (Hyclone). The MCF-7 cells were maintained in a humidified incubator containing 5% CO2 at 37° C. The cells were plated in 10 cm culture dishes at a density of 1×10^6 cells. To establish primary mammospheres, single cell-suspended MCF-7 cells were inoculated into ultra-low attachment 6-well plates containing 2 ml of complete MammoCult™ medium (StemCell Technologies, Vancouver, BC, Canada) at a density of 3.5 to 4×10^4 cells/well. The complete MammoCult™ medium was supplemented with 4 μg/ml of heparin, 0.48 μg/ml of hydrocortisone, 100 U/ml of penicillin, and 100 μg/ml of streptomycin. The cells were incubated in a 5% CO2 incubator at 37° C. for 7 days.
(§4) On day 10 of culture, cell culture plates were placed on a scanner (Epson Perfection V700 PHOTO, Epson Korea, Co, Seoul, Korea) to obtain 8-bit gray scale images of mammospheres. The images were acquired using a NICE software program downloaded from ftp://ftp.nist.gov/pub/physics/mlclarke/NICE at a low resolution of 300 dpi. For counting, a desired number of rows and columns (e.g., 2×3 for a 6-well plate) were selected to generate ROIs and after selecting the elliptical setting of the NICE program, the individual ROIs were defined by adjusting the movement and size of the provided ROI shapes. The background signals of the images were negated using a threshold algorithm, and the selected images were automatically counted. To analyze the formation of mammospheres, mammosphere formation efficiency (MFE, %) was determined by the following equation: MFE (%)=the number of mammospheres per well/a total number of plated cells per well×100.

[8] = system: MDA-MB-231 cell-derived mammospheres; experiment: Mammosphere formation; format: cell-based, human
Procedure: as §3, §4

A549 cells [9] = experiment: Clonogenic assay; format: cell-based, human; conditions: A549, 10 μM
Procedure: (§5) MDA-MB-231 cells or A549 cells were inoculated at low density in a 6-well plate, and, in a DMEM medium, the MDA-MB-231 cells were treated with different concentrations of ciclesonide, or the A549 cells were treated with 10 μM ciclesonide. After 24 hours, the medium was replaced with a new medium and cultured for […] to allow the cells to grow. The grown colonies were counted.

MDA-MB-231 cells [10] = experiment: Clonogenic assay; format: cell-based, human
Procedure: as §5

SMILES: CC(C)C(=O)OCC(=O)[C@@]12O[C@H](C3CCCCC3)O[C@@H]1C[C@H]1[C@@H]3CCC4=CC(=O)C=C[C@]4(C)[C@H]3[C@@H](O)C[C@@]12C [ciclesonide]
- number of apoptotic lung cancer cells (annexin V+) (A549 cells [1]): increased
- number of apoptotic breast cancer cells (annexin V+) (MDA-MB-231 cells [2]): increased
- proliferation of mammospheres (mammospheres): significantly reduced
- tumor volume vs control not treated [3]: smaller
- tumor weight vs control not treated [3]: smaller
- formation of apoptotic bodies (A549 cells [4]): apoptotic bodies were formed
- formation of apoptotic bodies (MDA-MB-231 cells [5]): apoptotic bodies were formed
- proportion of ALDH-positive lung cancer cells (A549 cells [6]): reduced
- growth of breast cancer stem cells ([7]; MCF-7 mammospheres, 10 μM): significantly inhibited
- size of the mammospheres ([7]; MCF-7 primary mammospheres): reduced
- reduction of the number of mammospheres ([7]; MCF-7 primary mammospheres, 5 μM or 10 μM, 7 days): 90%
- growth of breast cancer stem cells ([8]; MDA-MB-231 mammospheres, 10 μM): significantly inhibited
- size of the mammospheres ([8]; MDA-MB-231 primary mammospheres): reduced
- reduction of the number of mammospheres ([8]; MDA-MB-231 primary mammospheres, 10 μM, 7 days): 90%
- colony formation (A549 cells [9]): inhibited
- colony formation (MDA-MB-231 cells [10]): inhibited

— patent publication US11191746B2, “Composition for inhibiting a growth of cancer stem cells comprising ciclesonide” (JEJU NATIONAL UNIVERSITY INDUSTRY-ACADEMIC COOPERATION …, priority 2016, dated 2021)
